Experimental data published in ChEMBL document CHEMBL1201862, “PubChem BioAssay data set” (2004).
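96-well plates; 48 h exposure; 5 concentrations. Endpoints by linear interpolation between flanking doses. Not reached: highest tested concentration assigned. GI50 is the concentration that inhibits growth by half.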 Active and inactive are the calls of the source. Rule as the data show it: active = GI50 up to about 1.1 µM and inactive = higher.

Legend:
Test in all cases: NCI anticancer screen, dose series, 48 h
SNB-75 = system: SNB-75
M14 = system: M14
ACHN = system: ACHN
OVCAR-8 = system: OVCAR-8
PC-3 = system: PC-3
MDA-MB-231 = system: MDA-MB-231
TK-10 = system: TK-10
LOX IMVI = system: LOX IMVI
NCI-H23 = system: NCI-H23
MOLT-4 = system: MOLT-4
SF-539 = system: SF-539
SW-620 = system: SW-620
OVCAR-3 = system: OVCAR-3
CAKI-1 = system: CAKI-1
UO-31 = system: UO-31
Hs-578T = system: Hs-578T
MCF7 = system: MCF7
NCI-H460 = system: NCI-H460
COLO 205 = system: COLO 205
HL-60 = system: HL-60

SMILES | GI50 (SNB-75) | GI50 (M14) | GI50 (ACHN) | GI50 (OVCAR-8) | GI50 (PC-3) | GI50 (MDA-MB-231) | GI50 (TK-10) | GI50 (LOX IMVI) | GI50 (NCI-H23) | GI50 (MOLT-4) | GI50 (SF-539) | GI50 (SW-620) | GI50 (OVCAR-3) | GI50 (CAKI-1) | GI50 (UO-31) | GI50 (Hs-578T) | GI50 (MCF7) | GI50 (NCI-H460) | GI50 (COLO 205) | GI50 (HL-60)
COc1ccc2c(c1)-c1c(c3ccccc3n1CCN1CCOCC1)CC2 | 10.8 µM (inactive) | 35 µM (inactive) | 35.7 µM (inactive) | 16 µM (inactive) | 14.8 µM (inactive) | 18.9 µM (inactive) | 0.0363 µM (active) | 16.6 µM (inactive) | 21.7 µM (inactive) | 13 µM (inactive) | 25 µM (inactive) | 32.1 µM (inactive) | 18.2 µM (inactive) | 17.5 µM (inactive) | 22.6 µM (inactive) | 13.5 µM (inactive) | 32.3 µM (inactive) | 16.8 µM (inactive) | 16 µM (inactive) | –
O=[N+]([O-])C(=C(N1CCCCC1)N1CCCCC1)/C(Cl)=C(\Cl)[N+](=O)[O-] | 17.5 µM (inactive) | 8.47 µM (inactive) | 3.27 µM (inactive) | 10.9 µM (inactive) | 14.3 µM (inactive) | 7.59 µM (inactive) | 5.41 µM (inactive) | 2.32 µM (inactive) | 5.6 µM (inactive) | 1.14 µM (inactive) | 9.1 µM (inactive) | 3.36 µM (inactive) | 3.79 µM (inactive) | 1.19 µM (inactive) | 3.54 µM (inactive) | 4.86 µM (inactive) | 2.46 µM (inactive) | 22.5 µM (inactive) | 5.01 µM (inactive) | –
O=C1NC(O)CCN1C1CC(O)C(CO)O1 (centres undefined) | – | > 100 µM (inactive) | > 100 µM (inactive) | > 100 µM (inactive) | > 100 µM (inactive) | > 100 µM (inactive) | > 100 µM (inactive) | > 100 µM (inactive) | > 100 µM (inactive) | > 100 µM (inactive) | > 100 µM (inactive) | > 100 µM (inactive) | > 100 µM (inactive) | > 100 µM (inactive) | > 100 µM (inactive) | > 100 µM (inactive) | > 100 µM (inactive) | > 100 µM (inactive) | > 100 µM (inactive) | > 100 µM (inactive)
C=CCSC1=N/C(=C\c2ccc(Cl)cc2)C(=O)N1CC=C | – | 66.2 µM (inactive) | 32.6 µM (inactive) | 47.2 µM (inactive) | 20 µM (inactive) | 30.2 µM (inactive) | 55.7 µM (inactive) | 42.9 µM (inactive) | 24.6 µM (inactive) | – | 28.8 µM (inactive) | 30.3 µM (inactive) | 43.7 µM (inactive) | 37 µM (inactive) | 34.7 µM (inactive) | 68.7 µM (inactive) | 18.9 µM (inactive) | 43.7 µM (inactive) | 33.3 µM (inactive) | 9.35 µM (inactive)
COC(=O)[C@H]1CO[C@@H](C(C)(C)C)N1C(=O)N1C=CC(=O)C[C@@H]1C | > 100 µM (inactive) | – | > 100 µM (inactive) | > 100 µM (inactive) | > 100 µM (inactive) | > 100 µM (inactive) | > 100 µM (inactive) | > 100 µM (inactive) | > 100 µM (inactive) | – | – | > 100 µM (inactive) | > 100 µM (inactive) | > 100 µM (inactive) | > 100 µM (inactive) | > 100 µM (inactive) | > 100 µM (inactive) | – | > 100 µM (inactive) | > 100 µM (inactive)
CN(/N=C/C=N/N(C)C1=NCCCN1)C1=NCCCN1 | > 100 µM (inactive) | > 100 µM (inactive) | > 100 µM (inactive) | > 100 µM (inactive) | > 100 µM (inactive) | > 100 µM (inactive) | > 100 µM (inactive) | > 100 µM (inactive) | > 100 µM (inactive) | > 100 µM (inactive) | > 100 µM (inactive) | > 100 µM (inactive) | > 100 µM (inactive) | > 100 µM (inactive) | > 100 µM (inactive) | > 100 µM (inactive) | > 100 µM (inactive) | > 100 µM (inactive) | > 100 µM (inactive) | –
O=C1C2C(C(=O)N1c1ccccc1)C1(c3ccccc3)CCC2(C(=O)c2ccccc2)O1 (centres undefined) | – | > 10 µM (inactive) | > 10 µM (inactive) | > 10 µM (inactive) | > 10 µM (inactive) | > 10 µM (inactive) | > 10 µM (inactive) | > 10 µM (inactive) | > 10 µM (inactive) | 9.82 µM (inactive) | > 10 µM (inactive) | > 10 µM (inactive) | > 10 µM (inactive) | > 10 µM (inactive) | > 10 µM (inactive) | > 10 µM (inactive) | > 10 µM (inactive) | > 10 µM (inactive) | > 10 µM (inactive) | > 10 µM (inactive)
